The nature of data set [1]: Bulk density measured with Powder-tester Type PT-N. It is filed as physicochemical. Particulars: dried salt powder; Powder-tester Type PT-N (Hosokawa Micron); hydrochloride. On the procedure:
The bulk density was measured with a Powder-tester Type PT-N (product of Hosokawa Micron).

The text on data set [2]:
These two compounds are difficult to separate through distillation due to the small difference between their respective boiling points.

Molecules are shown by their SMILES.

In the case of `Cl.N#Cc1ccc(CN)cc1` [Comparative Example, p-Cyanobenzylamine hydrochloride, reference compound], the bulk density in data set [1] was determined as 0.2 g/mL. `Cl.N#Cc1ccc(CN)cc1` [Example 1, p-cyanobenzylamine hydrochloride]: the bulk density in data set [1] was 0.3 g/mL.

As to `Cl.N#Cc1ccc(CN)cc1` [Example 7, p-cyanobenzylamine hydrochloride], the bulk density in data set [1] was 0.5 g/mL. On to `Cl.N#Cc1ccc(CN)cc1` [p-cyanobenzylamine hydrochloride], for which, in data set [2], the water solubility result is “much lower than that of p-xylylenediamine hydrochloride”.

The values are drawn from patent US6392083B1, “Process for producing salts of cyanobenzylamines” (Showa Denko K.K., priority 1999, dated 2002).
